Assay results as given in ChEMBL document CHEMBL4118192, “BET bromodomain ligands: Probing the WPF shelf to improve BRD4 bromodomain affinity and metabolic stability” (Bioorg Med Chem, 2018).

Target: ATPase family AAA domain-containing protein 2B (Homo sapiens) (UniProt Q9ULI0)
Test: Inhibition of human partial length ATAD2B (Q955 to R1082 residues) expressed in bacterial expression system assessed as residual activity at 1 uM by BROMOscan assay relative to control

ATPase family AAA domain-containing protein 2B (Homo sapiens), sequence (Q9ULI0 whole entry, the tested form may be a part): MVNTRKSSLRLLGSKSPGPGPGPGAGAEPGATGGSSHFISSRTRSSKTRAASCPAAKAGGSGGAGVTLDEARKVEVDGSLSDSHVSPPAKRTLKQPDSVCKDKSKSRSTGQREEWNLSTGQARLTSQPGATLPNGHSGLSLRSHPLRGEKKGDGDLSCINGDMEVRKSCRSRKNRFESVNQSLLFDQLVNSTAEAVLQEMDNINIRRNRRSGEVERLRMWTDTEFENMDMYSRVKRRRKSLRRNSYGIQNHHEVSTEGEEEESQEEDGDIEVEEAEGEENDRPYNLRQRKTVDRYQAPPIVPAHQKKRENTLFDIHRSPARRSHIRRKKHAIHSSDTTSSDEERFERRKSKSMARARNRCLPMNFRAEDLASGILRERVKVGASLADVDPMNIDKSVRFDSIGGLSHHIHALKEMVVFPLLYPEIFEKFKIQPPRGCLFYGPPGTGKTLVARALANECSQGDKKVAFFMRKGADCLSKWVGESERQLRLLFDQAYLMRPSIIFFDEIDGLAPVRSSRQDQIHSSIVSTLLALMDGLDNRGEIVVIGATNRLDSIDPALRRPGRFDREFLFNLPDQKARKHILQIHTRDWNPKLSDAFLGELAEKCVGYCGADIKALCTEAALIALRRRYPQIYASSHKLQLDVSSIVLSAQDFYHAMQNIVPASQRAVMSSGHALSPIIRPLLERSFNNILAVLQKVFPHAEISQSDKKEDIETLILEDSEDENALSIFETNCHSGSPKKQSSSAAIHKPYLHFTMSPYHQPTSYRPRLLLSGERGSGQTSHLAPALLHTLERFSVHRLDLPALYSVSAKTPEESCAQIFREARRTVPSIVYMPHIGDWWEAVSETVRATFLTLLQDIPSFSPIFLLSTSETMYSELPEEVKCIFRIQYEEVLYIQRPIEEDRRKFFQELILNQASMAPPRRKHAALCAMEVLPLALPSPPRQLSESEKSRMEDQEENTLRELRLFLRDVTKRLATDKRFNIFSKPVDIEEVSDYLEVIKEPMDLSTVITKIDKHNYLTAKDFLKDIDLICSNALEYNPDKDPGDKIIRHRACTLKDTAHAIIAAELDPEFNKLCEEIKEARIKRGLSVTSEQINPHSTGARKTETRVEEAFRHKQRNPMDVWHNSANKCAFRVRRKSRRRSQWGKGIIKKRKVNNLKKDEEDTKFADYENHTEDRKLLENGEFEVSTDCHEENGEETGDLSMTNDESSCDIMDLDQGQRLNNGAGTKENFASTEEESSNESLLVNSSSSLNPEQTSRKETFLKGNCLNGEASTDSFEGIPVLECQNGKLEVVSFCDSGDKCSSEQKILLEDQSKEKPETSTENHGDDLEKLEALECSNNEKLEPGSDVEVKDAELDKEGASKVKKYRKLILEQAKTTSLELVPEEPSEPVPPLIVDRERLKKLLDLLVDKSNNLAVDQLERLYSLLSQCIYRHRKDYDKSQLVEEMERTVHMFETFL

Cc1noc(C)c1-c1cc(O)cc(C(O)c2ccccc2)c1 (stereo unspecified)
Activity: 66%
